Measured values reported in patent US11208412B2 (DAEGU-GYEONGBUK MEDICAL INNOVATION FOUNDATION, priority 2017, dated 2021).

How the values were obtained:
Assay in all cases: Kinase selectivity, DiscoverX scanMAX Kinase assay panel (% control)
Type in all cases: binding
[1] = target: T1, kinases of the scanMAX Kinase assay panel (Homo sapiens, UniProt P53350); conditions: PLK1; 1 uM
T1 construct: purchased DiscoverX Co. (contract measurement) scanMAX Kinase assay panel
In short: (§1)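 Percent of control computed as (compound − positive control)/(negative control − positive control) × 100, DMSO defining 100% and positive control 0%. Each panel kinase exposed to 1 uM compound; values under 35% taken to mean the compound acts on that kinase.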

[2] = target: T2, kinases of the scanMAX Kinase assay panel (Homo sapiens, UniProt P10721, L576P); conditions: KIT(L576P); 1 uM
T2 construct: purchased DiscoverX Co. (contract measurement) scanMAX Kinase assay panel
In short: as §1

[3] = target: T3, kinases of the scanMAX Kinase assay panel (Homo sapiens, UniProt O75385); conditions: kinase ULK1; 1 uM in DMSO
T3 construct: purchased DiscoverX Co. (contract measurement) scanMAX Kinase assay panel
T3 sequence (O75385 1-1050): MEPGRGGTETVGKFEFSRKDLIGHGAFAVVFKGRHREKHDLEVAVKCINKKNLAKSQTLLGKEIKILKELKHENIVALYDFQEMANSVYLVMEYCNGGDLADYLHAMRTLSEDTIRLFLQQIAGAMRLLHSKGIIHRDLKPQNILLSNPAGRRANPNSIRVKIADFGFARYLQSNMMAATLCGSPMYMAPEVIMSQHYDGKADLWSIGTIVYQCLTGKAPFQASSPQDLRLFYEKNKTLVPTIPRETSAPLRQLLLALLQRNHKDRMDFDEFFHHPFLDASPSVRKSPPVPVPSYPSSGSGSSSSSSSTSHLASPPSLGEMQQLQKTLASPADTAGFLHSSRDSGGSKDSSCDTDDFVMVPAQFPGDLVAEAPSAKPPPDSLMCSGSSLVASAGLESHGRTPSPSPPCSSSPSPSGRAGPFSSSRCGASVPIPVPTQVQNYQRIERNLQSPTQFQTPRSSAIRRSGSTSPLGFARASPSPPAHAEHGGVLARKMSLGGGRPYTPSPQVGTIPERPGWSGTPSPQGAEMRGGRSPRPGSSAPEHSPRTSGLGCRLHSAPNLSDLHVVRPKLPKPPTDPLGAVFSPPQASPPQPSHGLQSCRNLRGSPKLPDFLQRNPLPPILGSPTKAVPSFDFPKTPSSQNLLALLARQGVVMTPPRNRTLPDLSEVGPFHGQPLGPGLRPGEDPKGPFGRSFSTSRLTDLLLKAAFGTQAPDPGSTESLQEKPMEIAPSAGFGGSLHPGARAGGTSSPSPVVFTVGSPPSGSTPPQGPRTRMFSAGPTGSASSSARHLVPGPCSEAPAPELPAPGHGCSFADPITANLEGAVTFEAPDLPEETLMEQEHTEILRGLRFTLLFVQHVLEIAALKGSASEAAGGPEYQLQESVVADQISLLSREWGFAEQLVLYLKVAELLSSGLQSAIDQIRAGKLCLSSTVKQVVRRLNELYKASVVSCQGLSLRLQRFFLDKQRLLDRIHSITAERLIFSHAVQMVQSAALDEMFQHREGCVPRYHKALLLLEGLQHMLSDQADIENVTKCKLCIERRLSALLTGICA
In short: as §1

[4] = target: T4, kinases of the scanMAX Kinase assay panel (Homo sapiens, UniProt Q13555); conditions: CAMK2G; 1 uM
T4 construct: purchased DiscoverX Co. (contract measurement) scanMAX Kinase assay panel
In short: as §1

[5] = target: T5, kinases of the scanMAX Kinase assay panel (Homo sapiens, UniProt Q9H2X6); conditions: HIPK2; 1 uM
T5 construct: purchased DiscoverX Co. (contract measurement) scanMAX Kinase assay panel
In short: as §1

[6] = target: T6, kinases of the scanMAX Kinase assay panel (Homo sapiens, UniProt P51957); conditions: NEK4; 1 uM
T6 construct: purchased DiscoverX Co. (contract measurement) scanMAX Kinase assay panel
In short: as §1

[7] = target: T7, kinases of the scanMAX Kinase assay panel (Homo sapiens, UniProt Q9BVS4); conditions: kinase RIOK2; 1 uM in DMSO
T7 construct: purchased DiscoverX Co. (contract measurement) scanMAX Kinase assay panel
In short: as §1

[8] = target: T8, kinases of the scanMAX Kinase assay panel (Homo sapiens, UniProt P00533, L858R); conditions: EGFR(L858R); 1 uM
T8 construct: purchased DiscoverX Co. (contract measurement) scanMAX Kinase assay panel
In short: as §1

[9] = target: T9, kinases of the scanMAX Kinase assay panel (Homo sapiens, UniProt Q9H3Y6); conditions: kinase SRMS; 1 uM in DMSO
T9 construct: purchased DiscoverX Co. (contract measurement) scanMAX Kinase assay panel
In short: as §1

[10] = target: T10, kinases of the scanMAX Kinase assay panel (Homo sapiens, UniProt P11802); conditions: 1 uM
T10 construct: purchased DiscoverX Co. (contract measurement) scanMAX Kinase assay panel
In short: as §1

[11] = target: T11, kinases of the scanMAX Kinase assay panel (Homo sapiens, UniProt Q8NEV4); conditions: MYO3A; 1 uM
T11 construct: purchased DiscoverX Co. (contract measurement) scanMAX Kinase assay panel
In short: as §1

[12] = target: T12, kinases of the scanMAX Kinase assay panel (Homo sapiens, UniProt Q14012); conditions: CAMK1; 1 uM
T12 construct: purchased DiscoverX Co. (contract measurement) scanMAX Kinase assay panel
In short: as §1

[13] = target: T13, kinases of the scanMAX Kinase assay panel (Homo sapiens, UniProt P42336, Q546K); conditions: PIK3CA(Q546K); 1 uM
T13 construct: purchased DiscoverX Co. (contract measurement) scanMAX Kinase assay panel
In short: as §1

[14] = target: T14, kinases of the scanMAX Kinase assay panel (Homo sapiens, UniProt P08631); conditions: HCK; 1 uM
T14 construct: purchased DiscoverX Co. (contract measurement) scanMAX Kinase assay panel
In short: as §1

T5 sequence (Q9H2X6 whole entry): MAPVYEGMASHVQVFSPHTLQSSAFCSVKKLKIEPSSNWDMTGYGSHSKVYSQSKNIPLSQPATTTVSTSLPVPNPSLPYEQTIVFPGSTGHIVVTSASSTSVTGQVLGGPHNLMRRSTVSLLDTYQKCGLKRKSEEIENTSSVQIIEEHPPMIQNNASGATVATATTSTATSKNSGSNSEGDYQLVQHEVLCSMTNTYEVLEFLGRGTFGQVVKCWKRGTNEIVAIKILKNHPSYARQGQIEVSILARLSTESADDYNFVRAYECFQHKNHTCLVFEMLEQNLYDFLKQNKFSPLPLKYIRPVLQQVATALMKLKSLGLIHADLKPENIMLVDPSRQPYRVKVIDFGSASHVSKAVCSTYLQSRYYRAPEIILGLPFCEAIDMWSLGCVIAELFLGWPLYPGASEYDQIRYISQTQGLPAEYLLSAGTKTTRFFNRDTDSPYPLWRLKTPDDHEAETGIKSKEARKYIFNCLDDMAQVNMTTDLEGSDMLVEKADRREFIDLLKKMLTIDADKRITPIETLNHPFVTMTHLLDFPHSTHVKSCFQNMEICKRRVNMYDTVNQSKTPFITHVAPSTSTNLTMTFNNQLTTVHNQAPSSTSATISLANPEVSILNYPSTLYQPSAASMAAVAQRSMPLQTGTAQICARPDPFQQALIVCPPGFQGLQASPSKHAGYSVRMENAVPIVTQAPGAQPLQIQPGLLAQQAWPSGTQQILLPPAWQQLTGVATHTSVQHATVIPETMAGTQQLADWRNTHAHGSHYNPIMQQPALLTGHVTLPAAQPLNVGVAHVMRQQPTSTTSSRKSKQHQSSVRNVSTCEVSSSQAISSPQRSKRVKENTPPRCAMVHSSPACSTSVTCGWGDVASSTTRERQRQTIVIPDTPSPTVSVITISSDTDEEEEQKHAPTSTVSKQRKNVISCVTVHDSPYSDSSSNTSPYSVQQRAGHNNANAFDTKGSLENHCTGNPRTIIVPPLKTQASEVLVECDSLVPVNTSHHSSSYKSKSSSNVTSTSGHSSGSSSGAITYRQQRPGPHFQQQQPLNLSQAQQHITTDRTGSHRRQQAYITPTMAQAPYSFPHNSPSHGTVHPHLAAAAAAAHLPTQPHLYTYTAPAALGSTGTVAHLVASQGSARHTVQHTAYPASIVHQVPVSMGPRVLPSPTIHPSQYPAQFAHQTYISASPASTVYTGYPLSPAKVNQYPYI
T14 sequence (P08631 whole entry): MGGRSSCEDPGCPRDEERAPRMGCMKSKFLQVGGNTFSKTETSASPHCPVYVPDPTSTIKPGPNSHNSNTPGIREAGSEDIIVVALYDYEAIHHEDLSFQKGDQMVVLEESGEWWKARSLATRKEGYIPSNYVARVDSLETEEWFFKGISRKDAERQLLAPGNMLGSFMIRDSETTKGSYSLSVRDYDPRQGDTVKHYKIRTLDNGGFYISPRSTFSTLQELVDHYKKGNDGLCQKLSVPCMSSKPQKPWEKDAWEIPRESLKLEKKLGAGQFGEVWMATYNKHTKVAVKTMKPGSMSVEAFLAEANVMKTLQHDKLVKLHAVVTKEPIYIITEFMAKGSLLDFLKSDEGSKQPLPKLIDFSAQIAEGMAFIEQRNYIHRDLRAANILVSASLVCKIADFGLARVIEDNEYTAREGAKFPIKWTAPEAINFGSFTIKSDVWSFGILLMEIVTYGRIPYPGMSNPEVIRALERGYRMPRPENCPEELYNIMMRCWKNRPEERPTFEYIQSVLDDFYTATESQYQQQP
T9 sequence (Q9H3Y6 whole entry): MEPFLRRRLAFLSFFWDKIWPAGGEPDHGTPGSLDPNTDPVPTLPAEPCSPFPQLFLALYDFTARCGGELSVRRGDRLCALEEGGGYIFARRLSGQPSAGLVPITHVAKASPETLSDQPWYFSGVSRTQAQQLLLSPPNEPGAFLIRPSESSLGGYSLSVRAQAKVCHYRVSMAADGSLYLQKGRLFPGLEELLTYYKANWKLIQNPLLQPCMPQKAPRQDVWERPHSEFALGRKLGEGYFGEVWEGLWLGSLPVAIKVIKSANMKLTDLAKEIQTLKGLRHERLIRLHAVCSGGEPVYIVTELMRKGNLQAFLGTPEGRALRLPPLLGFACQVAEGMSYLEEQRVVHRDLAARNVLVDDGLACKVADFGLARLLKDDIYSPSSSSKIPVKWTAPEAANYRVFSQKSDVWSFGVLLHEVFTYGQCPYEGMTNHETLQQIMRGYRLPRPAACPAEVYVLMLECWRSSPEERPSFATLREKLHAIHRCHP
T13 sequence (P42336 whole entry Q546K): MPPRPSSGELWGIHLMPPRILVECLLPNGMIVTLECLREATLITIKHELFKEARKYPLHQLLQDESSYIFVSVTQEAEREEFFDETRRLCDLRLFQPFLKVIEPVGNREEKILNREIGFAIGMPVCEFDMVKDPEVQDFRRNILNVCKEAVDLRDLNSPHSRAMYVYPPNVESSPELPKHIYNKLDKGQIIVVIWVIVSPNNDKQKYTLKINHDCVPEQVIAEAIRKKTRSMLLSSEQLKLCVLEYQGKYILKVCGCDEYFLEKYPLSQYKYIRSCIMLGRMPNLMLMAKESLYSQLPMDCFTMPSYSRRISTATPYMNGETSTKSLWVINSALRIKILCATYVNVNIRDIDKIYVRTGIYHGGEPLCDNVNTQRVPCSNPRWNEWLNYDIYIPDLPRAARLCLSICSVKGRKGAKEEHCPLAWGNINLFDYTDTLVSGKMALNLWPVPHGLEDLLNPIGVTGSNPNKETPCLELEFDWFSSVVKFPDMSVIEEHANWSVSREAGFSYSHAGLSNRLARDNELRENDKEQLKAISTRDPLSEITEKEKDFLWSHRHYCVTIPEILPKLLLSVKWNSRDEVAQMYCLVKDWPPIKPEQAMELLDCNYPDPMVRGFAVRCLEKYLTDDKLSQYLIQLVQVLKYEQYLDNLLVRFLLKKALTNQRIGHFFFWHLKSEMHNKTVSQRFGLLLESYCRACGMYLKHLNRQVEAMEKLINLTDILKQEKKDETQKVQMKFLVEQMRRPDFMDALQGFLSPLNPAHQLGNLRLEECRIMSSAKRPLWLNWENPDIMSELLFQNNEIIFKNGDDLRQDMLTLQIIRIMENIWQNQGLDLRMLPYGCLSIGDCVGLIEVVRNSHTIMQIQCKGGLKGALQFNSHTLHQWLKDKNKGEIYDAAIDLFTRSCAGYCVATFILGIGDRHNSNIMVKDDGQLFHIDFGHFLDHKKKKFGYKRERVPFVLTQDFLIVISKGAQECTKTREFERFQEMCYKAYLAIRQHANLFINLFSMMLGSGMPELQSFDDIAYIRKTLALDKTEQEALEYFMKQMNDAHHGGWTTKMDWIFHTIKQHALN
T6 sequence (P51957 whole entry): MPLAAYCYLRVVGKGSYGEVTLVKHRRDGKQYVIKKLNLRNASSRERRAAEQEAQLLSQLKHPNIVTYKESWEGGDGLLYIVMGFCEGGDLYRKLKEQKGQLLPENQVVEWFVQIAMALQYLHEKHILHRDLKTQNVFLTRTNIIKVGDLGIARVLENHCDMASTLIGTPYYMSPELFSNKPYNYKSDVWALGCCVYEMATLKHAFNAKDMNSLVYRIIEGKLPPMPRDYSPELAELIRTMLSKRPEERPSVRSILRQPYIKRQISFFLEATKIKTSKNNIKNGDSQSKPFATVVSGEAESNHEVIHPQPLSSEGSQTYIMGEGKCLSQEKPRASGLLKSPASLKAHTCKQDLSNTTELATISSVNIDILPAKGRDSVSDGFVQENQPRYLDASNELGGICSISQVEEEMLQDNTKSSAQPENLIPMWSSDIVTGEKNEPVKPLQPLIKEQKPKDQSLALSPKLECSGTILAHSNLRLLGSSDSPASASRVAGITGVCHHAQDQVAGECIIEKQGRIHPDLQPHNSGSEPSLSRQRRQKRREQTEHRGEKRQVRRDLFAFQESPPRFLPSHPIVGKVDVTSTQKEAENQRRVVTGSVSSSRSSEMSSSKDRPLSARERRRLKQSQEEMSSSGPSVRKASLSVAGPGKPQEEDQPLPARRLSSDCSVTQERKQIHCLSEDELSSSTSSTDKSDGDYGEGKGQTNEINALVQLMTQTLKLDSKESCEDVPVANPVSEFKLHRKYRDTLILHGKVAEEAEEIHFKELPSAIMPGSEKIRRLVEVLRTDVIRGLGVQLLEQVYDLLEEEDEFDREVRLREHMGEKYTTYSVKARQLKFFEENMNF
T4 sequence (Q13555 whole entry): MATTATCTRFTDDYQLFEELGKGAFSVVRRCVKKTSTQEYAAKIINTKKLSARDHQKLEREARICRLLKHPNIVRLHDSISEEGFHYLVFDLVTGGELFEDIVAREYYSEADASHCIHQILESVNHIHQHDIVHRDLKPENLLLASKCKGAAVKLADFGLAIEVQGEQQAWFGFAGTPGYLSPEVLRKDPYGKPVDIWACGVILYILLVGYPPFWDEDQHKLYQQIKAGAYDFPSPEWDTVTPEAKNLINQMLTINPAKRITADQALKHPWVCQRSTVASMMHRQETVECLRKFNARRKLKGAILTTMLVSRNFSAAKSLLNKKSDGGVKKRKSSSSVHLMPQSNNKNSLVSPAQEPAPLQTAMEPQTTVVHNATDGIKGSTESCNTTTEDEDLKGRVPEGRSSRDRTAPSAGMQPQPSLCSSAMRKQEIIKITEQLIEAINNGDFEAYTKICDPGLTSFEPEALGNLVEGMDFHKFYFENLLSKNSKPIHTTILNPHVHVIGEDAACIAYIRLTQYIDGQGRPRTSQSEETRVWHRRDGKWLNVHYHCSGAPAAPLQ
T10 sequence (P11802 whole entry): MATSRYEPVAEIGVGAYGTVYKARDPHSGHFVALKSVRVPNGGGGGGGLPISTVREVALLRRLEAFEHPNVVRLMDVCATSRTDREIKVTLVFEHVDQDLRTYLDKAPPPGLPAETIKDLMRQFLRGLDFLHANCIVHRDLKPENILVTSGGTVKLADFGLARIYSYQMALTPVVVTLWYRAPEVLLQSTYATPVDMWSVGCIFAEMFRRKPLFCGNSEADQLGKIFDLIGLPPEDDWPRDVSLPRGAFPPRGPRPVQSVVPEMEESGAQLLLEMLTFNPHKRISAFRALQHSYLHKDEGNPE

SMILES | remaining binding at 1 µM [1] | remaining binding at 1 µM [2] | remaining binding at 1 µM [3] | remaining binding at 1 µM [4] | remaining binding at 1 µM [5] | remaining binding at 1 µM [6] | remaining binding at 1 µM [7] | remaining binding at 1 µM [8] | remaining binding at 1 µM [9] | remaining binding at 1 µM ([10]; CDK4-cyclinD1) | remaining binding at 1 µM ([10]; CDK4-cyclinD3) | remaining binding at 1 µM ([10]; CDK4) | remaining binding at 1 µM [11] | remaining binding at 1 µM [12] | remaining binding at 1 µM [13] | remaining binding at 1 µM [14]
CNc1nc(Nc2ccc(C(=O)N3CCOCC3)cc2OC)nc2[nH]cc(C#N)c12 [Example 1, 2-((2-methoxy-4-(morpholine-4-carbonyl)phenyl)amino)-4-(methylamino)-7H-pyrrolo[2,3-d]pyrimidine-5-carbonitrile] | 14% | 41% | 75% | 88% | 47% | 75% | 47% | 96% | 69% | 74% | 96% | 61% | 68% | 59% | 75% | 95%
CC1(Nc2nc(Nc3cnn([C@H]4CCN(C5COC5)C[C@@H]4F)c3Cl)nc3[nH]cc(C#N)c23)CC1 [Example 52, 2-((5-chloro-1-((3S,4S)-3-fluoro-1-(oxetane-3-yl)piperidine-4-yl)-1H-pyrazole-4-yl)amino)((1-methylcyclopropyl)amino)-7H-pyrrolo[2,3-d]pyrimidine-5-carbonitrile] | 100% | 0% | 20% | 53% | 13% | 100% | 1.1% | 41% | 41% | 59% | 100% | 100% | 3.9% | 6.8% | 85% | 11%
CCNc1nc(Nc2ccc(C(=O)N3CCC(N4CCOCC4)CC3)cc2OC)nc2[nH]cc(C(F)(F)F)c12 [Example 104, (4-((4-(ethylamino)-5-(trifluoromethyl)-7H-pyrrolo[2,3-d]pyrimidine-2-yl)amino)-3-methoxyphenyl)(4-morpholinopiperidine-1-yl)methanone] | 65% | 47% | 100% | 80% | 14% | 100% | 75% | 89% | 66% | 55% | 53% | 100% | 78% | 72% | 87% | 100%
